We go through 12 compounds from publication PMC5876388 (Scientific Reports, 2018).

In data set [1] the test system is Notch signaling (LS174T Notch cells). The experiment in a line: Notch signaling transcriptional activity assay (luciferase reporter, T-REx system). It is filed as cell-based. The note with it: for IC50: read-out: IC50 of Notch signal inhibitory activity (luciferase). The text has this:
We constructed a cell-based reporter assay with the T-Rex system to evaluate Notch signaling inhibitory activity. Without doxycycline (Dox), the tetracycline repressor (TetR) inhibits the expression of N-terminally FLAG-tagged mouse Notch1(1704–2531), which is 40 aa longer than NICD at the N-terminus. In the presence of Dox, Dox binds to the TetR to release the inhibition of expression of Notch1(1704–2531). Cleavage of Notch1(1704–2531) by γ-secretase generates NICD, which then translocates to the nucleus and forms a heterotrimer with RBP-J driving luciferase transcription (Fig. 2). This assay cells (LS174T Notch cells) was stably incorporated with pGL4.20 luciferase plasmid which has 12 × RBP-J binding site (12 copies of […])-β-globin promoter. Cell viability was measured using a fluorometric microculture cytotoxicity assay. […] The composition of the G. speciosa MeOH extract was partitioned successively with hexane, EtOAc, nBuOH, and water.
Figure 2 The T-REx assay system. Without Dox, expression of Notch1(1704–2531) is suppressed by TetR. The addition of Dox inactivates TetR to initiate expression of Notch1(1704–2531), which is then cleaved by endogenous γ-secretase to form NICD. NICD then translocates to the nucleus and forms a heterotrimer with RBP-J and MAML that binds to a 12× RBP-J binding site to drive luciferase expression. Luciferase activity was detected as Notch signaling pathway activity. Dox: doxycycline, TetR: tetracycline repressor, Luc.: luciferase.
Assay cells (LS174T Notch cells: 2 × 10^4 cells/well) were incubated in a 96-well white plate at 37 °C for 12 h. After incubation, 50 ng/mL Dox was added to each well to induce expression of exogenous Notch1(1704–2531) protein. After incubation at 37 °C for 12 h, the medium was changed to Dox-free medium containing individual samples. Luciferase activity was measured after treatment at 37 °C for 12 h. Cell viability was evaluated by the FMCA method at the same time. These assays were performed in 0.1% DMSO (n = 3). Error bars represent SD.
In a 96-well white plate, Cells (LS174T Notch cells; 2 × 10^4 cells per well) were cultured at 37 °C for 12 h. To express Notch1(1704–2531) protein in the cells, doxycycline (50 ng/mL) was added to each well, and cells were cultured at 37 °C for 12 h. Medium was changed to doxycycline-free medium containing each sample, then cells were incubated with at 37 °C for 12 h. A microplate luminometer (Thermo Fisher Scientific Inc., Waltham, USA) and the Bright-Glo™ Luciferase Assay System (Promega Co., Madison, USA) were used for measurement of Luciferase activity. Fluorometric Microculture Cytotoxicity Assay (FMCA) was used for measurement of cell viability of the sample-treated cells. After incubation of assay cells (2×10^4 cells per well) in a 96-well black plate at 37 °C for 24 h, samples addition was performed at the same time as the luciferase assay. The assay cells were cultures at 37 °C for 12 h. A fluorescence plate reader (Thermo Fisher Scientific Inc., Waltham, USA) was used for determination of cell viability by FMCA.

Another data set deals with HPB-ALL cells. The experiment in a line: Cytotoxicity test, AlamarBlue. Here is the method: HPB-ALL cells (1 × 10^4 cells per well) were incubated in 96-well black plates at 37 °C for 72 h. Media also contained different concentrations of compound. After incubation, AlamarBlue was added 10 μL per well. After incubation for 4 h, using a fluorescence plate reader, fluorescence was measured and cell viability was determined. Data are presented as the mean with SD from three independent experiments. […] The effect on protein expression was analyzed by Western blotting. β-Actin was used as internal control. (D,E) Relative protein levels of NICD and HES1 analyzed by densitometry. Data are presented as the mean with SD from three independent experiments. *P < 0.05 is considered statistically significant. P values were analyzed by Student’s t test.
HPB-ALL cells (1 × 10^4 cells per well) were incubated in 96-well black plates in 100 μL of RPMI-1640 medium with 10% FBS, Streptomycin (100 μg/mL) and Penicillin (100 unit/mL). Media also contained different concentrations of compound. Cells were incubated at 37 °C for 72 h. After incubation, AlamarBlue (00–025, DAL1025; Thermo Fisher Scientific Inc., Waltham, USA) was added 10 μL per well. After incubation for 4 h, using a fluorescence plate reader (Thermo Fisher Scientific Inc., Waltham, USA), fluorescence was measured and cell viability was determined.
For orientation: Alamar Blue is a resazurin reagent that responds to reducing activity.

[2] abbreviates: Homo sapiens, LS174T Notch cells, 12 h treatment after Dox induction.
Where [3] appears, read: LS174T Notch cells, 12 h treatment after Dox induction.

As usually defined, the IC50 is the concentration that inhibits the measured activity by half.

“Also recorded” adds a separate entry of the source. Read-outs that look alike come from different tables or passages of the source. A value given as a limit tells only on which side of the number the result lay.

Consider `COc1c(O)cc2oc3cc(O)c(CC=C(C)C)c(O)c3c(=O)c2c1CC=C(C)C` [Compound 1, α-mangostin], for which, in data set [1] (setting [2]), the half-maximal inhibitory concentration (IC50) came out at 8 µM. Regarding `COc1c(O)cc2oc3cc(O)c(C/C=C(/C)CO)c(O)c3c(=O)c2c1C/C=C(\C)CCC=C(C)C` [Compound 3, cowanol], the IC50 in data set [1] (Homo sapiens, LS174T, 12 h) is 7.3 µM. In the case of `CC(C)=CCC/C(C)=C/Cc1c(O)c(O)cc2oc3cc(O)c(CC=C(C)C)c(O)c3c(=O)c12` [Compound 4, norcowanin], the IC50 in data set [1] (setting [2]) worked out at 10.5 µM. Turning to `COc1c(O)cc2oc3cc(O)cc(O)c3c(=O)c2c1C/C=C(\C)CCC=C(C)C` [Compound 5, rubraxanthone], in data set [1] (setting [2]), the IC50 is more than 40 µM. For the same compound, the “IC50 of Notch signal inhibitory activity (luciferase)” value in data set [1] (setting [3]) was “weak activity or were inactive”. For `COc1cc2c(=O)c3c(O)c(C/C=C(\C)CCC=C(C)C)c(O)cc3oc2cc1O` [Compound 6, cowaxanthone], in data set [1] (setting [3]), the “IC50 of Notch signal inhibitory activity (luciferase)” value was “weak activity or were inactive; also recorded: inactive”. As for `COc1cc2oc3cc(O)c(OC)c(CC=C(C)C)c3c(=O)c2c(O)c1CC=C(C)C` [Compound 7, β-mangostin], the IC50 in data set [1] (setting [2]) was found to be 7.5 µM.

As to `COc1cc2oc3cc(O)c(CC=C(C)C)c(O)c3c(=O)c2c(CC=C(C)C)c1O` [Compound 8, 6-methoxy-γ-mangostin], the half-inhibitory concentration (IC50) in data set [1] (setting [2]) was more than 40 µM. In addition, in data set [1] (setting [3]), the “IC50 of Notch signal inhibitory activity (luciferase)” value was “weak activity or were inactive”.

Turning to `COc1c(O)cc2oc3cc4c(c(O)c3c(=O)c2c1CC=C(C)C)C=CC(C)(C)O4` [Compound 9, 9-hydroxycalabaxanthone], in data set [1] (setting [2]), the IC50 stood at 19.6 µM. On the same count and under the same terms, with `COc1cc2oc3cc(O)c(CC=C(C)C)c(O)c3c(=O)c2c(CC=C(C)C)c1OC` [Compound 10, cowaxanthone B] the figure was 15 µM; with `COc1c(O)cc2oc3cc4c(c(O)c3c(=O)c2c1C/C=C(\C)CCC=C(C)C)C=CC(C)(C)O4` [Compound 11, fuscaxanthone A], 11.7 µM.

For the compound `C=C(C)c1cc2c(O)c3c(=O)c4c(CC=C(C)C)c(OC)c(O)cc4oc3cc2o1` [Compound 12], the “IC50 of Notch signal inhibitory activity (luciferase)” value in data set [1] (setting [3]) is “weak activity or were inactive; also recorded: inactive”. Take `C[C@H](NC(=O)Cc1cc(F)cc(F)c1)C(=O)N[C@H](C(=O)OC(C)(C)C)c1ccccc1` [DAPT, N-[N-(3,5-difluorophenacetyl)-L-alanyl]-S-phenylglycine t-butyl ester, reference compound]: the IC50 in data set [1] (setting [3]) is 0.12 µM; with HPB-ALL cells, more than 20 µM.
